Entries after “also recorded” stand apart in the source; their conditions may differ. Read-outs that look alike come from different tables or passages of the source.
Experiments:
[1] = test system: SARS-CoV-2; assay: combination therapy, viral load by RT-PCR (ORF1ab gene) in Calu-3 cells; assay type: cell-based; design: key to enhanced decrease of viral load, combination vs two single agents: Each combination that showed an enhanced decrease of viral load as compared with the two single agents is denoted by “E”; Combinations that showed a slight trend towards an enhanced decrease of viral load as compared with the two single agents is denoted by “(e)”; —
[2] = target: SARS-CoV-2 Spike S1 (RBD) (Severe acute respiratory syndrome coronavirus 2, UniProt P0DTC2); assay: biochemical; assay type: binding
[3] = test system: SARS-CoV-2; assay: hamster model of SARS-CoV-2 infection, intranasally inhaled treatment; assay type: in vivo
[4] = test system: SARS-CoV-2-induced cytokine and chemokine production; assay type: cell-based; details: Calu-3 cells; Cases A-C
[5] = test system: SARS-CoV-2; assay: SARS-CoV-2 viral load by RT-qPCR in Calu-3 supernatant; assay type: cell-based
[6] = test system: SARS-CoV-2; assay type: cell-based
[7] = test system: Calu-3 cells; details: Calu-3 cells or Vero cells

In the case of O=C([O-])C[C@H](O)C[C@H](O)/C=C/c1c(C2CC2)nc2ccccc2c1-c1ccc(F)cc1.O=C([O-])C[C@H](O)C[C@H](O)/C=C/c1c(C2CC2)nc2ccccc2c1-c1ccc(F)cc1.[Ca+2] [INS103, Pitavastatin Calcium], the “decrease in viral load, combination with remdesivir or dexamethasone vs monotherapies” value ([1]; FIGS. 30, 31, statin and SARS-CoV-2 (MOI 0.01) mixed 1 hour at room temperature, 24 hours post infection) is reported as “enhanced”, the “enhanced decrease of viral load, combination vs two single agents” value (from here on “enhanced decrease of viral load”) ([1]; statin 0.2 μM + Dex 0.1 μM) is reported as “—” and the “enhanced decrease of viral load” value ([1]; statin 0.2 μM + Dex 1 μM) is reported as “(e)”. The “enhanced decrease of viral load” value ([1]; statin 0.2 μM + Dex 10 μM) was “—”, the “enhanced decrease of viral load” value ([1]; statin 0.2 μM + Remde 1) was “(e)” and the “enhanced decrease of viral load” value ([1]; statin 0.2 μM + Remde 10) was “(e)”. For the same compound, the “enhanced decrease of viral load” value ([1]; statin 0.2 μM + Remde 100) was “(e)”, the “enhanced decrease of viral load” value ([1]; statin 1 μM + Dex 0.1 μM) was “—” and the “enhanced decrease of viral load” value ([1]; statin 1 μM + Dex 1 μM) was “enhancement in the decrease of viral load and E”. For the same compound, the “enhanced decrease of viral load” value ([1]; statin 1 μM + Dex 10 μM) was “—”, the “enhanced decrease of viral load” value ([1]; statin 1 μM + Remde 1) was “—” and the “enhanced decrease of viral load” value ([1]; statin 1 μM + Remde 10) was “—”. The “enhanced decrease of viral load” value ([1]; statin 1 μM + Remde 100) was “—”, the “enhanced decrease of viral load” value ([1]; statin 5 μM + Dex 0.1 μM) was “E” and the “enhanced decrease of viral load” value ([1]; statin 5 μM + Dex 1 μM) was “—”. For the same compound, the “enhanced decrease of viral load” value ([1]; statin 5 μM + Dex 10 μM) was “—”, the “enhanced decrease of viral load” value ([1]; statin 5 μM + Remde 1) was “—” and the “enhanced decrease of viral load” value ([1]; statin 5 μM + Remde 10) was “—”. For the same compound, the “enhanced decrease of viral load” value ([1]; statin 5 μM + Remde 100) was “—”, the “binding to SARS-COV-2 S-protein (in words)” value ([2]; MST binding assay) was “bind with SARS-COV-2 S-protein at nanomolar (nM) concentrations” and the Kd ([2]; Table 1, MST, 25 nM labelled SARS-CoV-2 S1, read-out: Affinity) was 678 to 1000 nM. The Remarks ([2]; Table 1, binding to SARS-CoV-2 S1) was “Good binding”, the S/N ([2]; Table 1, signal to noise ratio of MST binding) was 14.4-17.3 and the Kd ([2]; Table 2, read-out: Affinity (nM) of binding to SARS-COV2 Spike protein) was 678 to 1000 nM. The “viral titers in throat swabs” value ([3]; 3 mg/kg i.n., Day 1) was “reduced viral titers”, the “viral titer in the nasal swabs and tracheas” value ([3]; 3 mg/kg i.n., Day 3 post-infection) was “reduction of viral titer” and the “viral titer in lung samples” value ([3]; 3 mg/kg i.n., Day 3 post-infection, R4 samples) was “significant decrease in viral titer”. For the same compound, the “percentage of affected lung (inflammation)” value ([3]; 3 mg/kg i.n., day 6, virus-infected controls ˜50%) was about 30%, the “viral titers in throat swabs (reduction trend)” value ([3]; 3 mg/kg i.n., days 2 or 3) was “not observed” and the “viral titers from the nasal swabs” value ([3]; 3 mg/kg i.n., vs DPBS or control vehicle (DV)) was “trend of reduced viral titers”. For the same compound, the “lung inflammation (histopathology)” value ([3]; 3 mg/kg i.n., vs controls) was “reduction in acute ling inflammation; also recorded: mild/moderate reduction in lung inflammation”, the “weight loss of infected hamsters” value ([3]; pitavastatin 3 mg/kg i.n., D-2 to 5, statistical significance at day 4) was “less weight loss” and the “SARS-CoV-2-induced cytokine and chemokine production” value [4] was “inhibited”. The SARS-CoV-2 viral load ([5]; Cases A-C, 5, 1, 0.2 μM) was “dose-dependently reduced viral load”, the SARS-CoV-2 viral load ([5]; high dose 5 uM) was “reduced SARS-CoV-2 viral load” and the “SARS-CoV-2-induced loss of cell viability in Calu-3 cells (overall conclusion)” value ([6]; Calu-3 cells) was “inhibited SARS-CoV-2-induced loss of cell viability”. The “protection against virus-induced loss of cell viability” value (shortened to “protection against virus-induced loss”) ([6]; Case A: compound added 1 h after infection, 72 h contact) was “dose-dependent protection”, the “Average (percent cell viability)” value ([6]; Case A: compound added 1 h after infection, 72 h contact, 0.2 uM) was 4.83% and the “Average (percent cell viability)” value ([6]; Case A: compound added 1 h after infection, 72 h contact, 1 uM) was 9.66%. For the same compound, the “Average (percent cell viability)” value ([6]; Case A: compound added 1 h after infection, 72 h contact, 5 uM) was 17.37%, the “Average (percent cell viability)” value ([6]; Case B: compound added 24 h after infection, 48 h contact, 0.2 uM) was 0.5243% and the “Average (percent cell viability)” value ([6]; Case B: compound added 24 h after infection, 48 h contact, 1 uM) was 1.724%. For the same compound, the “Average (percent cell viability)” value ([6]; Case B: compound added 24 h after infection, 48 h contact, 5 uM) was −3.025%, the “Average (percent cell viability)” value ([6]; Case C: compound added 48 h after infection, 24 h contact, 0.2 uM) was 1.847% and the “Average (percent cell viability)” value ([6]; Case C: compound added 48 h after infection, 24 h contact, 1 uM) was −1.192%. For the same compound, the “Average (percent cell viability)” value ([6]; Case C: compound added 48 h after infection, 24 h contact, 5 uM) was −1.208%, the “Average (percent cell viability)” value ([6]; Case D: pre-treated 6 h, then infected 72 h, 0.2 uM) was 34.83% and the “Average (percent cell viability)” value ([6]; Case D: pre-treated 6 h, then infected 72 h, 1 uM) was 32.21%. The “Average (percent cell viability)” value ([6]; Case D: pre-treated 6 h, then infected 72 h, 5 uM) was 28.3%, the “protection against virus-induced loss” value ([6]; Case D: pre-treated 6 hours, then infected 72 hours) was “dose-independent protection” and the “protection against virus-induced loss” value ([6]; Case D: pre-treated 6 hours, then infected 72 hours, listed as INS-103) was “inhibit SARS-CoV-2-induced loss of cell viability”. For the same compound, the “Average (percent cell viability)” value ([6]; Case E: pre-treated 24 h, then infected 72 h, 0.2 uM) was −3.00%, the “Average (percent cell viability)” value ([6]; Case E: pre-treated 24 h, then infected 72 h, 1.0 uM) was −0.20% and the “Average (percent cell viability)” value ([6]; Case E: pre-treated 24 h, then infected 72 h, 5.0 uM) was 46.71%. The “protection against virus-induced loss” value ([6]; Case E: pre-treated 24 hours, then infected 72 hours, high and medium doses of INS102, high dose of INS103) was “dose-dependent protection”, the “anti-viral protection (cell viability)” value ([6]; Case F: 1 hour, then virus 72 hours, high dose of INS102, all doses of INS103) was “dose-dependent anti-viral protection” and the “Average (percent cell viability)” value ([6]; Case F: compound 1 h before infection (coinc 1 h), then virus 72 h, 0.2 uM) was 9.881%. The “Average (percent cell viability)” value ([6]; Case F: compound 1 h before infection (coinc 1 h), then virus 72 h, 1 uM) was 15.82%, the “Average (percent cell viability)” value ([6]; Case F: compound 1 h before infection (coinc 1 h), then virus 72 h, 5 uM) was 19.96% and the cytotoxicity [7] was “not cytotoxic”.

Source: patent US20230172849A1, “INHALED STATINS FOR TREATMENT OF VIRAL RESPIRATORY DISEASES” (priority 2020, published 2023)
